# Data as given in ChEMBL document CHEMBL1140580, “Synthesis and characterization of trans-4-(4-chlorophenyl)pyrrolidine-3-carboxamides of piperazinecyclohexanes as ligands for the melanocortin-4 receptor” (Bioorg Med Chem Lett, 2007).
# pEC50, pKi: −log10 of the molar value.
# Assays:
# Melanocortin receptor 4 [1] = biological target: T1, Melanocortin receptor 4 (Homo sapiens, UniProt P32245); assay: Displacement of […]NDPMSH from human MC4R expressed in HEK293 cells; assay type: cell-based
# Melanocortin receptor 4 [2] = biological target: T1, Melanocortin receptor 4; assay: Agonist activity at MC4R assessed as stimulation of cAMP release relative to alphaMSH; assay type: functional
# Melanocortin receptor 4 [3] = biological target: T1, Melanocortin receptor 4; assay: Agonist activity at MC4R assessed as stimulation of cAMP release; assay type: functional
# T1 sequence (P32245 whole entry): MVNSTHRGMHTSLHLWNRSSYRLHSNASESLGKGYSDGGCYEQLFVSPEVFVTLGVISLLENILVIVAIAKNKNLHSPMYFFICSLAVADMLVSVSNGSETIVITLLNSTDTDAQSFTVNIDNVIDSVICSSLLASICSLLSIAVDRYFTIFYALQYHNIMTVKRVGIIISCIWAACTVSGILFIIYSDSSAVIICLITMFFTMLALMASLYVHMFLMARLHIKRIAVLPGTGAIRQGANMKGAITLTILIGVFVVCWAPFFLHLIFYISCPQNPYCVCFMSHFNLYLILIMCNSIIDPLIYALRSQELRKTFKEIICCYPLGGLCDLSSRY
SMILES,pKi (Melanocortin receptor 4 [1]),Intrinsic activity (Melanocortin receptor 4 [2]),pEC50 (Melanocortin receptor 4 [3])
O=C([C@H]1CNC[C@@H]1c1ccc(Cl)cc1)N1CCN(C2(CNCc3ccncc3)CCCCC2)CC1,5.66,,
O=C([C@H]1CN(Cc2ccccc2)C[C@@H]1c1ccc(Cl)cc1)N1CCN(C2(CNCc3ccccc3)CCCCC2)CC1,6.85,1%,
CC(C)N1C[C@H](C(=O)N2CCN(C3(CNCC4CCCCC4)CCCCC3)CC2)[C@@H](c2ccc(Cl)cc2)C1,6.52,,
O=C([C@H]1CN(C2CCOCC2)C[C@@H]1c1ccc(Cl)cc1)N1CCN(C2(CNCc3ccccc3)CCCCC2)CC1,7.54,70%,6.00
COc1ccc(CN(Cc2ccc(OC)cc2)CC2(N3CCN(C(=O)[C@H]4CN(C(C)C)C[C@@H]4c4ccc(Cl)cc4)CC3)CCCCC2)cc1,5.55,,
CC(=O)N(Cc1ccncc1)CC1(N2CCN(C(=O)[C@H]3CN(C(C)C)C[C@@H]3c3ccc(Cl)cc3)CC2)CCCCC1,5.82,,
COc1ccc(CNCC2(N3CCN(C(=O)[C@H]4CN(C(C)C)C[C@@H]4c4ccc(Cl)cc4)CC3)CCCCC2)c(F)c1,8.74,26%,5.80
CC(C)N1C[C@H](C(=O)N2CCN(C3(CNCc4ccc(C(F)(F)F)cc4)CCCCC3)CC2)[C@@H](c2ccc(Cl)cc2)C1,6.89,16%,
CC(C)N1C[C@H](C(=O)N2CCN(C3(CNCc4nccn4C)CCCCC3)CC2)[C@@H](c2ccc(Cl)cc2)C1,6.41,31%,
CC(C)N1C[C@H](C(=O)N2CCN(C3(CNCc4cncnc4)CCCCC3)CC2)[C@@H](c2ccc(Cl)cc2)C1,6.66,66%,6.66
COc1ccc(CN(C)CC2(N3CCN(C(=O)[C@H]4CN(C(C)C)C[C@@H]4c4ccc(Cl)cc4)CC3)CCCCC2)cc1,6.96,,
CC(C)N1C[C@H](C(=O)N2CCN(C3(CNCc4cccc(F)c4)CCCCC3)CC2)[C@@H](c2ccc(Cl)cc2)C1,7.62,23%,
CC(C)N1C[C@H](C(=O)N2CCN(C3(CNCc4cccnc4)CCCCC3)CC2)[C@@H](c2ccc(Cl)cc2)C1,7.46,72%,6.41
CC(C)N1C[C@H](C(=O)N2CCN(C3(CNCc4ccccc4F)CCCCC3)CC2)[C@@H](c2ccc(Cl)cc2)C1,7.92,48%,6.24
CC(=O)N1C[C@H](C(=O)N2CCN(C3(CNCc4ccncc4)CCCCC3)CC2)[C@@H](c2ccc(Cl)cc2)C1,5.52,,
CC(C)N1C[C@H](C(=O)N2CCN(C3(CNCc4ccccc4)CCCCC3)CC2)[C@@H](c2ccc(Cl)cc2)C1,7.59,31%,5.96
CC(C)N1C[C@H](C(=O)N2CCN(C3(CNCc4ccsc4)CCCCC3)CC2)[C@@H](c2ccc(Cl)cc2)C1,7.66,31%,6.08
COCC(C)NCC1(N2CCN(C(=O)[C@H]3CN(C(C)C)C[C@@H]3c3ccc(Cl)cc3)CC2)CCCCC1 (stereo not given in full),6.51,,
CC(C)CN(Cc1ccncc1)CC1(N2CCN(C(=O)[C@H]3CN(C(C)C)C[C@@H]3c3ccc(Cl)cc3)CC2)CCCCC1,5.57,,
CCNC(=O)N1C[C@H](C(=O)N2CCN(C3(CNCc4ccncc4)CCCCC3)CC2)[C@@H](c2ccc(Cl)cc2)C1,5.34,,
COc1ccc(CN(CC(C)C)CC2(N3CCN(C(=O)[C@H]4CN(C(C)C)C[C@@H]4c4ccc(Cl)cc4)CC3)CCCCC2)cc1,5.74,,

SMILES,pKi (Melanocortin receptor 4 [1]),Intrinsic activity (Melanocortin receptor 4 [2]),pEC50 (Melanocortin receptor 4 [3])
CCC(=O)N1C[C@H](C(=O)N2CCN(C3(CNCc4ccccc4)CCCCC3)CC2)[C@@H](c2ccc(Cl)cc2)C1,6.68,19%,
CC(C)C(N)C(=O)N1C[C@H](C(=O)N2CCN(C3(CNCc4ccccc4)CCCCC3)CC2)[C@@H](c2ccc(Cl)cc2)C1 (stereo not given in full),6.17,0%,
CCN(Cc1ccc(OC)cc1)CC1(N2CCN(C(=O)[C@H]3CN(C(C)C)C[C@@H]3c3ccc(Cl)cc3)CC2)CCCCC1,6.72,,
CC(C)N1C[C@H](C(=O)N2CCN(C3(CNCCc4ccccn4)CCCCC3)CC2)[C@@H](c2ccc(Cl)cc2)C1,6.16,,
CC(C)N1C[C@H](C(=O)N2CCN(C3(CNCc4ccc(F)cc4F)CCCCC3)CC2)[C@@H](c2ccc(Cl)cc2)C1,7.96,27%,5.89
Cc1c(CNCC2(N3CCN(C(=O)[C@H]4CN(C(C)C)C[C@@H]4c4ccc(Cl)cc4)CC3)CCCCC2)cnn1C,7.96,43%,7.30
CNCC(=O)N1C[C@H](C(=O)N2CCN(C3(CNCc4ccccc4)CCCCC3)CC2)[C@@H](c2ccc(Cl)cc2)C1,7.00,8%,
CC(C)N1C[C@H](C(=O)N2CCN(C3(CNCc4ccccc4Cl)CCCCC3)CC2)[C@@H](c2ccc(Cl)cc2)C1,7.60,75%,5.89
CC(C)N1C[C@H](C(=O)N2CCN(C3(CNC(=O)Cc4ccccc4)CCCCC3)CC2)[C@@H](c2ccc(Cl)cc2)C1,6.29,,
CC(C)N1C[C@H](C(=O)N2CCN(C3(CNS(=O)(=O)c4ccccc4)CCCCC3)CC2)[C@@H](c2ccc(Cl)cc2)C1,6.48,20%,
CC(C)N1C[C@H](C(=O)N2CCN(C3(CNCc4ccoc4)CCCCC3)CC2)[C@@H](c2ccc(Cl)cc2)C1,7.12,53%,6.32
CCC(=O)N1C[C@H](C(=O)N2CCN(C3(CNCc4ccncc4)CCCCC3)CC2)[C@@H](c2ccc(Cl)cc2)C1,5.51,,
CS(=O)(=O)N1C[C@H](C(=O)N2CCN(C3(CNCc4ccncc4)CCCCC3)CC2)[C@@H](c2ccc(Cl)cc2)C1,5.47,,
COc1ccccc1CNCC1(N2CCN(C(=O)[C@H]3CN(C(C)C)C[C@@H]3c3ccc(Cl)cc3)CC2)CCCCC1,7.21,48%,6.00
O=C([C@H]1CN(Cc2ccccc2)C[C@@H]1c1ccc(Cl)cc1)N1CCN(C2(CNCc3ccncc3)CCCCC2)CC1,6.70,,
CC(C)C(=O)N1C[C@H](C(=O)N2CCN(C3(CNCc4ccccc4)CCCCC3)CC2)[C@@H](c2ccc(Cl)cc2)C1,6.68,47%,
CC(C)N1C[C@H](C(=O)N2CCN(C3(CNCc4ccccc4OC(F)(F)F)CCCCC3)CC2)[C@@H](c2ccc(Cl)cc2)C1,6.96,,
CC(C)N1C[C@H](C(=O)N2CCN(C3(CN(C)Cc4ccncc4)CCCCC3)CC2)[C@@H](c2ccc(Cl)cc2)C1,6.12,,
CC(C)N1C[C@H](C(=O)N2CCN(C3(CNCc4ccc(N(C)C)cc4)CCCCC3)CC2)[C@@H](c2ccc(Cl)cc2)C1,7.19,16%,5.96
CC(C)N1C[C@H](C(=O)N2CCN(C3(CNCc4c[nH]cn4)CCCCC3)CC2)[C@@H](c2ccc(Cl)cc2)C1,6.66,49%,6.96
O=C(C1CCCC1)N1C[C@H](C(=O)N2CCN(C3(CNCc4ccccc4)CCCCC3)CC2)[C@@H](c2ccc(Cl)cc2)C1,6.74,26%,

SMILES,pKi (Melanocortin receptor 4 [1]),Intrinsic activity (Melanocortin receptor 4 [2]),pEC50 (Melanocortin receptor 4 [3])
COc1ccc(CNCC2(N3CCN(C(=O)[C@H]4CN(C(C)C)C[C@@H]4c4ccc(Cl)cc4)CC3)CCCCC2)c(OC)c1,7.80,29%,
CC(C)N1C[C@H](C(=O)N2CCN(C3(CNCc4ccc5c(c4)OCO5)CCCCC3)CC2)[C@@H](c2ccc(Cl)cc2)C1,8.08,7%,
CC(C)N1C[C@H](C(=O)N2CCN(C3(CNCc4cc5ccccc5n4C)CCCCC3)CC2)[C@@H](c2ccc(Cl)cc2)C1,5.92,,
CSc1ccc(CNCC2(N3CCN(C(=O)[C@H]4CN(C(C)C)C[C@@H]4c4ccc(Cl)cc4)CC3)CCCCC2)cc1,7.57,,
CC(C)N1C[C@H](C(=O)N2CCN(C3(CNCc4ccccc4C(F)(F)F)CCCCC3)CC2)[C@@H](c2ccc(Cl)cc2)C1,6.85,,
CC(C)N1C[C@H](C(=O)N2CCN(C3(CNCc4ccc([N+](=O)[O-])cc4)CCCCC3)CC2)[C@@H](c2ccc(Cl)cc2)C1,7.28,,
COc1ccc(CNCC2(N3CCN(C(=O)[C@H]4CN(C(C)C)C[C@@H]4c4ccc(Cl)cc4)CC3)CCCCC2)cc1,8.44,17%,
COCC(C)N1C[C@H](C(=O)N2CCN(C3(CNCc4ccccc4)CCCCC3)CC2)[C@@H](c2ccc(Cl)cc2)C1 (stereo not given in full),7.00,7%,
CC(C)N1C[C@H](C(=O)N2CCN(C3(CNCc4ncc[nH]4)CCCCC3)CC2)[C@@H](c2ccc(Cl)cc2)C1,6.25,69%,6.64
COC(=O)c1ccc(CNCC2(N3CCN(C(=O)[C@H]4CN(C(C)C)C[C@@H]4c4ccc(Cl)cc4)CC3)CCCCC2)cc1,7.49,21%,
CC(C)N1C[C@H](C(=O)N2CCN(C3(CNCc4cccs4)CCCCC3)CC2)[C@@H](c2ccc(Cl)cc2)C1,7.43,58%,6.23
CC(C)N1C[C@H](C(=O)N2CCN(C3(CNS(=O)(=O)Cc4ccccc4)CCCCC3)CC2)[C@@H](c2ccc(Cl)cc2)C1,6.47,40%,
CCCC(=O)N1C[C@H](C(=O)N2CCN(C3(CNCc4ccccc4)CCCCC3)CC2)[C@@H](c2ccc(Cl)cc2)C1,6.72,8%,
CC(C)Oc1ccc(CNCC2(N3CCN(C(=O)[C@H]4CN(C(C)C)C[C@@H]4c4ccc(Cl)cc4)CC3)CCCCC2)cc1,8.68,6%,
CCN(Cc1ccncc1)CC1(N2CCN(C(=O)[C@H]3CN(C(C)C)C[C@@H]3c3ccc(Cl)cc3)CC2)CCCCC1,5.89,,
NCCC(=O)N1C[C@H](C(=O)N2CCN(C3(CNCc4ccccc4)CCCCC3)CC2)[C@@H](c2ccc(Cl)cc2)C1,6.96,9%,
CC(=O)N1C[C@H](C(=O)N2CCN(C3(CNCc4ccccc4)CCCCC3)CC2)[C@@H](c2ccc(Cl)cc2)C1,6.72,13%,
CC(N)C(=O)N1C[C@H](C(=O)N2CCN(C3(CNCc4ccccc4)CCCCC3)CC2)[C@@H](c2ccc(Cl)cc2)C1 (stereo not given in full),6.37,3%,
CC(C)N1C[C@H](C(=O)N2CCN(C3(CN)CCCCC3)CC2)[C@@H](c2ccc(Cl)cc2)C1,5.92,,
COc1ccc(CN(CC2(N3CCN(C(=O)[C@H]4CN(C(C)C)C[C@@H]4c4ccc(Cl)cc4)CC3)CCCCC2)OC)cc1,5.89,,
